This assay can be described thus: Dissociation constant with dimeric 16S rRNA RNA construct B.

Compound `NC[C@@H]1O[C@H](O[C@@H]2[C@H](O[C@@H]3OC(CSCCOCCSCC(O)CN4C(=O)c5ccc6c7c(ccc(c57)C4=O)C(=O)N(CC(O)CSCCOCCSC[C@H]4O[C@@H](O[C@H]5[C@H](O)[C@@H](N)C[C@@H](N)[C@@H]5O[C@H]5O[C@H](CN)[C@@H](O)[C@H](O)[C@H]5N)[C@H](O)[C@@H]4O[C@H]4O[C@@H](CN)[C@@H](O)[C@H](O)[C@H]4N)C6=O)[C@@H](O[C@@H]4O[C@H](CN)[C@H](O)C(O)[C@H]4N)[C@H]3O)[C@@H](O)[C@@H](N)C[C@@H]2N)[C@@H](N)[C@@H](O)[C@@H]1O` (some centres undefined) registered a Kd of 10 nM.
`CN(C)C1=CC2Oc3cc(N(C)C)ccc3C(c3ccc(C(=O)NC[C@@H]4O[C@H](O[C@H]5[C@@H](O)[C@H](O[C@@H]6[C@H](O)[C@H](N)C[C@@H](N)[C@H]6O[C@H]6O[C@@H](CO)[C@@H](O)[C@H](O)[C@@H]6N)O[C@@H]5CO)[C@H](N)[C@H](O)[C@@H]4O)cc3C(=O)O)=C2C=C1` (some centres undefined) returned a Kd of 280 nM.
As for `NC[C@@H]1O[C@H](O[C@H]2[C@@H](O)[C@H](O[C@H]3[C@H](O)[C@@H](N)C[C@@H](N)[C@@H]3O[C@H]3O[C@H](CN)[C@@H](O)[C@H](O)[C@H]3N)O[C@@H]2CSCCOCCSCC(O)CN2C(=O)c3ccc4c5c(ccc(c35)C2=O)C(=O)N(CC(O)CSCCOCCSC[C@H]2O[C@H](O[C@@H]3[C@@H](O)[C@H](O[C@H]5O[C@H](CN)[C@@H](O)C[C@H]5N)[C@@H](N)C[C@H]3N)[C@H](O)[C@@H](N)[C@@H]2O)C4=O)[C@H](N)[C@@H](O)[C@@H]1O` (some centres undefined), the Kd is 150 nM.
`NCC1O[C@H](O[C@H]2[C@@H](O)[C@H](O[C@H]3[C@H](O)[C@@H](N)C[C@@H](N)[C@@H]3O[C@H]3O[C@H](CN)[C@@H](O)[C@H](O)[C@H]3N)O[C@@H]2CSCCOCCSSCCOCCSC[C@H]2O[C@H](O[C@@H]3[C@@H](O)[C@H](O[C@H]4O[C@H](CN)[C@@H](O)C[C@H]4N)[C@@H](N)C[C@H]3N)[C@H](O)[C@@H](N)[C@@H]2O)[C@H](N)[C@@H](O)[C@@H]1O` (some centres undefined) returned a Kd of 290 nM.
With `NC[C@@H]1O[C@H](O[C@H]2[C@@H](O)[C@H](O[C@@H]3[C@@H](O)[C@H](N)C[C@H](N)[C@H]3O[C@H]3O[C@H](CN)[C@@H](O)[C@H](O)[C@H]3N)O[C@@H]2CO)[C@H](N)[C@@H](O)[C@@H]1O` [FRAMYCETIN] the figure was 350 nM; with `NC[C@H]1O[C@H](O[C@H]2[C@H](O)[C@@H](O[C@H]3O[C@H](CSCCOCCSCC(O)CN4C(=O)c5ccc6c7c(ccc(c57)C4=O)C(=O)N(CC(O)CSCCOCCSC[C@H]4O[C@H](O[C@@H]5[C@@H](O)[C@H](O[C@H]7O[C@H](CN)[C@@H](O)C[C@H]7N)[C@@H](N)C[C@H]5N)[C@H](O)[C@@H](N)[C@@H]4O)C6=O)[C@@H](O)[C@H](N)[C@H]3O)[C@H](N)C[C@@H]2N)[C@H](N)C[C@@H]1O` (some centres undefined), 1110 nM.
Consider `NC[C@H]1O[C@H](O[C@H]2[C@H](O)[C@@H](O[C@H]3O[C@H](CSCCOCCSSCCOCCSC[C@H]4O[C@H](O[C@@H]5[C@@H](O)[C@H](O[C@H]6O[C@H](CN)[C@@H](O)C[C@H]6N)[C@@H](N)C[C@H]5N)[C@H](O)[C@@H](N)[C@@H]4O)[C@@H](O)[C@H](N)[C@H]3O)[C@H](N)C[C@@H]2N)[C@H](N)C[C@@H]1O` [Tobramycin-Tobramycin], for which the Kd was determined as 1810 nM.
Consider `NC[C@H]1O[C@H](O[C@H]2[C@H](O)[C@@H](O[C@H]3O[C@H](CO)[C@@H](O)[C@H](N)[C@H]3O)[C@H](N)C[C@@H]2N)[C@H](N)C[C@@H]1O` [TOBRAMYCIN], for which the affinity, expressed as Kd, was 1680 nM.
In turn, `NCC1O[C@H](O[C@H]2[C@@H](O)[C@H](O[C@H]3[C@H](O)[C@@H](N)C[C@@H](N)[C@@H]3O[C@H]3O[C@H](CN)[C@@H](O)[C@H](O)[C@H]3N)O[C@@H]2CSCCOCCSSCCOCCSC[C@H]2O[C@@H](O[C@H]3[C@H](O)[C@@H](N)C[C@@H](N)[C@@H]3O[C@H]3O[C@H](CN)[C@@H](O)[C@H](O)[C@H]3N)[C@H](O)[C@@H]2O[C@@H]2OC(CN)[C@H](O)[C@@H](O)[C@@H]2N)[C@H](N)[C@@H](O)[C@@H]1O` (some centres undefined) displayed a Kd of 20 nM. This Kd is about 84-fold lower than that of the compound before.

For the origin of these results see ChEMBL document CHEMBL1133848, “Novel synthesis and RNA-binding properties of aminoglycoside dimers conjugated via a naphthalene diimide-based intercalator” (Bioorg Med Chem Lett, 2001).
